Patent publication US11066681B2, “Production of itaconic acid” (LESAFFRE ET COMPAGNIE, priority 2016, dated 2021)
“Also recorded” adds a separate entry of the source.

Assays:
[1] = tested on: A. niger AB1.13 CAD 4.1 (CBS 141653) strain; assay: Itaconic acid toxicity: shakeflask growth in M12+Cu with added IA, biomass dry weight; assay type: cell-based, Aspergillus niger
Procedure: FIG. 4: Growth of AB1.13 CAD 4.1 (CBS 141653) strain in M12+Cu supplemented with several concentrations of itaconic acid. Medium devoid of C-source is used as negative control. An extracellular concentration of 10 g/l IA in the production medium results in an 75% decrease in biomass development.
Shakeflasks (500 mL) were prepared with 100 mL M12+Cu supplemented with the following IA concentrations: 0, 10, 20, 40, 75 g/l and pH was adjusted to 2.3 by addition of KOH/H2SO4. The flasks were inoculated with 1 mL of overnight grown pre-culture. After 7 days the mycelium was harvested and the biomass was determined by measuring the dry weight. The effect of IA on the growth of A. niger was tested using the AB1.13 CAD 4.1 (CBS 141653) strain. As shown in FIG. 4 the growth of A. niger is already hampered at concentrations of 10 g/l IA in the extracellular medium.

[2] = tested on: trans-aconitate 2-methyltransferase (An16g06510); assay: Gene expression analysis (RNA-Seq) in A. niger IA producing strains; assay type: cell-based, Aspergillus niger; settings: IA producing A. niger strains in controlled fermentation
Procedure: Similarly, genome wide gene expression analysis of Aspergillus niger strains expressing a functional itaconic acid pathway grown in fermenters was carried out to identify genes co-regulated by the expression of the itaconic acid gene cluster. The following strains were investigated: AB1.13 WT, AB1.13 CAD 4.1 (CBS141653), AB1.13 #49B (CBS141657), CitB #99 (CBS141659), and CitB #113.
Controlled batch-cultivations were performed on 5 L scale benchtop New Brunswick Scientific fermenters (BioFlo 3000) at 33° C. Starting pH was 3.5 after inoculation and medium was allowed to naturally acidify till pH 2.3 and then kept at pH 2.3 by addition of 4M KOH. […]
BaseClear in Leiden, NL performed digital gene expression profiling experiments based on RNA-Seq with an Illumina HiSeq 2000 System. Approximately 8-32 M unfiltered paired-end (PE) reads (99 bp/read on ˜320 bp cDNA inserts) were obtained. […] The reads were then further filtered, such that all quality phred scores after filtering are at least 22, with a read-length of at least 40 bases. […] After filtering the #PE-reads/samples were between 7.6M and 19.8M for all the samples respectively.
Reads were aligned to the 20 contigs in a FastA file of the Aspergillus niger reference genome (from www.ebi.ac.uk). […] The reads were aligned to the reference genome using software based on a Burrows-Wheeler Transform (BWT) algorithm. […]

[3] = tested on: Itaconyl CoA transferase ATEG_06299; settings: 40 g/l IA addition to culture medium; cited from earlier work
[4] = tested on: Itaconyl CoA hydratase ATEG_03709; settings: 40 g/l IA addition to culture medium; cited from earlier work
[5] = tested on: Citramalyl-CoA lyase ATEG_03186; settings: 40 g/l IA addition to culture medium; cited from earlier work
[6] = tested on: Trans-aconitate 3-methyltransferase (tmt-1) ATEG_06208; settings: 40 g/l IA addition to culture medium; cited from earlier work
[7] = tested on: Trans-aconitate 2-methyltransferase ATEG_04223; settings: 40 g/l IA addition to culture medium; cited from earlier work

## C=C(CC(=O)O)C(=O)O [IA, itaconic acid]
[1]; 10 g/l IA in the extracellular medium, M12+Cu, 7 days
  growth of A. niger: hampered
[1]; 20 g/l IA and higher (20, 40 and 75 g/l), M12+Cu, 7 days, 33° C.
  growth at higher IA concentrations: detrimental effects of IA on growth become more evident; also recorded: further deteriorated growth
[1]; extracellular 10 g/l IA in production medium M12+Cu, pH 2.3, 7 days, 33° C.
  decrease in biomass development: 75%
[2]
  gene expression, effect of itaconic acid: induced
[3]
  Induced: induced
  induced expression level (RKPM): 130 RKPM
  x-fold: 8.2 x-fold
[4]
  Induced: induced
  induced expression level (RKPM): 320 RKPM
  x-fold: 2.3 x-fold
[5]
  Induced: induced
  induced expression level (RKPM): 150 RKPM
  x-fold: 5.4 x-fold
[6]
  Induced: not induced
  induced expression level (RKPM): <(4) RKPM
[7]
  Induced: not induced
  induced expression level (RKPM): <(25) RKPM
